According to patent US20070249709A1, “Crystal forms of (S)-(8(2,6-dichlorophenyl)-6-fluoro-2,3-dihydro benzo[b][1,4]dioxin-2-yl)methanamine hydrochloride salt” (Wyeth, priority 2006, published 2007):
“Also recorded” adds a separate entry of the source. Structures can show the parent of a compound that is named as a salt. Each block holds one molecule with its values, some of them ahead of it.

Experiments:
Format in all cases: physicochemical
[1] = Hygroscopicity by dynamic vapor sorption (DVS); conditions: for Reversibility of DVS mass change / Crystal form stability at high humidity (DVS): hydrochloride; for Crystal form stability at high humidity (DVS): high RH
From the text: The hygroscopicity (the ability to absorb water vapor from the surrounding atmosphere) of Forms I and II was explored by dynamic vapor sorption (DVS) experiments. […] When RH was scanned from 70% to 100%, significant mass change was observed (up to about 4.5%). […] When RH continued to be scanned from 50% to 0%, the sample lost water (weight). […] A second cycle of scanning indicated a new absorption behavior when RH was raised from 50% to 100%.
The starting RH was about 50%, and only about 1% of mass change was observed when RH was scanned to 100% RH. When RH was scanned back to 50%, the mass change appeared reversible. The mass change was very slow when RH continued to be scanned from 50% to 10%. When RH was scanned from 10% to 0%, the sample lost about 2.7% of mass (water).

[2] = Solution mediated transformation (reslurry stability experiments at 25° C.); conditions: for Stability on slurrying (summary of Table 6): water or organic solvent, hydrochloride
From the text: The mixtures were then filtered and the solids obtained were characterized by one or more methods of XRPD, DSC and TGA.

[3] = Thermal stability of crystal forms under vacuum and 50° C.; conditions: vacuum
Procedure: Forms I, II and III were placed in oven at 50° C. and under vacuum to assess their thermal stability.

Grinding test = conditions: manually ground, ambient conditions; hydrochloride
From the text: Samples of Form I and Form II were manually ground and the resulting powders were characterized by one or more methods of XRPD, DSC and TGA.

[4] = Heating of a mixture of Form I and Form III
Procedure: A mixture of Form I and Form III (2θ-50 wt % of Form III) was heated to 110° C. at ambient pressure and kept at this temperature and pressure for 4 hours.
A mixture of Form I and Form III (2θ-50 wt % of Form III) was placed in an oven at 50° C. and under vacuum for 72 hours.

[5] = Slurry of a mixture of Form I and Form III in a solvent, crystal form by XRPD/DSC; conditions: for Final Form, Slurry @ RT: about 2 days
Procedure: A mixture of Form I and Form III (2θ-50 wt % of Form III) was slurried in a solvent (see Table 5) with stirring at room temperature for about 2 days. The slurry was then filtered at room temperature. The solid was dried at 50° C. under vacuum for overnight. The solid obtained by the filtration was characterized by XRPD both before and after the drying at 50° C.

[6] = RH scanned from 100% back to 50%, room temperature

DVS mass change ([1]; RH from about 50% to 70%, room temperature (FIG. 3)): little mass change
Water absorption (DVS) ([1]; RH raised from 0% only to about 70% (FIG. 4)): absorbed very little water
DVS mass change ([1]; RH scanned from 70% to 100%, room temperature): up to 4.5%
DVS mass change remaining [1, 6]: about 2.7%
Reversibility of DVS mass change [1, 6]: substantially irreversible
Stability on slurrying (summary of Table 6) [2]: stable in organic solvents
Relative thermal stability (retention of crystal lattice integrity) [3]: more stable than Form III
Final Form ([3]; 48 hr): Form I
Solid form After grinding (Grinding test): some of Form I is changed into Form III
Compound: NC[C@H]1COc2cc(F)cc(-c3c(Cl)cccc3Cl)c2O1 [Form I, (S)-(8-(2,6-dichlorophenyl)-6-fluoro-2,3-dihydrobenzo[b][1,4]dioxin-2-yl)methanamine hydrochloride]
Crystal form stability at high humidity (DVS) ([1]; room temperature): may be converted into another form at high RH

DVS mass (water) loss ([1]; RH scanned from 10% to 0%, room temperature): about 2.7%
Reversibility of DVS mass change [1, 6]: reversible
DVS mass change ([1]; RH scanned from about 50% to 100%, room temperature (FIG. 8)): about 1%
Final form, Sample from wet filter cake ([2]; reslurry in tBME, 30 mins): I + II
Stability on slurrying (summary of Table 6) [2]: stable in water
Relative thermal stability (retention of crystal lattice integrity) [3]: more stable than Form III
Final Form ([3]; 72 hr): Form II
Compound: NC[C@H]1COc2cc(F)cc(-c3c(Cl)cccc3Cl)c2O1 [Form II, (S)-(8-(2,6-dichlorophenyl)-6-fluoro-2,3-dihydrobenzo[b][1,4]dioxin-2-yl)methanamine hydrochloride]
Crystal form stability at high humidity (DVS) ([1]; room temperature): substantially stable even under high humidity
Solid form After grinding (Grinding test): did not lose its crystal structure; also recorded: Form II

Stability on slurrying (summary of Table 6) [2]: less stable under some conditions
Final Form ([3]; 20 hr): Form I + Form III
Compound: NC[C@H]1COc2cc(F)cc(-c3c(Cl)cccc3Cl)c2O1 [Form III, (S)-(8-(2,6-dichlorophenyl)-6-fluoro-2,3-dihydrobenzo[b][1,4]dioxin-2-yl)methanamine hydrochloride]

Resulting solid form (XRPD) ([4]; 110° C., ambient pressure, 4 hours): anhydrous Form I
Resulting solid form (XRPD) ([4]; oven at 50° C., under vacuum, 72 hours): anhydrous Form I
Final Form, Slurry @ 50° C. ([5]; Isopropyl acetate): by DSC (I and minor III)
Final Form, Slurry @ RT ([5]; Isopropyl acetate): DSC (I and minor III)
Final Form, Slurry @ RT ([5]; Toluene): DSC (I and minor III)
Compound: NC[C@H]1COc2cc(F)cc(-c3c(Cl)cccc3Cl)c2O1 [I & III, (S)-(8-(2,6-dichlorophenyl)-6-fluoro-2,3-dihydrobenzo[b][1,4]dioxin-2-yl)methanamine hydrochloride]
